Key:
[1] = healthy subjects, oral administration; cited from earlier work
CAR T cells [2] = assay: In vitro CAR T cell proliferation with tacrolimus; format: cell-based; conditions: higher concentrations of tacrolimus; in the presence or absence of tumor
Experimental: (§1) CAR T cells used in the clinical study described in Example 1 were assessed according to standard in vitro methods; CD19 CAR expression was assessed (FIG. 2); CAR T cell cytotoxicity was assessed (FIG. 3); CD3 T cell proliferation was assessed (FIG. 4); and CAR T cell proliferation was assessed (FIG. 4).

CAR T cells [3] = assay: In vitro CAR T cell cytotoxicity with tacrolimus; format: cell-based; conditions: higher concentrations of tacrolimus, FIGS. 2-5
Experimental: as §1

## C=CC[C@@H]1/C=C(\C)C[C@H](C)C[C@H](OC)[C@H]2O[C@@](O)(C(=O)C(=O)N3CCCC[C@H]3C(=O)O[C@H](/C(C)=C/[C@@H]3CC[C@@H](O)[C@H](OC)C3)[C@H](C)[C@@H](O)CC1=O)[C@H](C)C[C@@H]2OC [tacrolimus]
[1]
  absolute bioavailability: 18±5%
CAR T cells [2]
  CAR T cell proliferation: reduced CAR T cell proliferation
CAR T cells [3]
  CAR T cytotoxicity: reduced CAR T cytotoxicity
CAR T cells [3]; listed as Tacrolimus
  CAR T cytotoxicity: Reduces CAR T Cytotoxicity in a Dose-Dependent Manner

Source: patent US20260199468A1, “COMPOSITIONS AND METHODS FOR TREATING CANCER USING CELL THERAPIES” (Orca Biosystems, Inc., priority 2023, published 2026)
